Test results as given in PubChem BioAssay (NCI).
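Test compounds were applied to cells in 96-well plates for 48 hours at 5 doses. The concentration for full growth arrest is given as TGI.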

Columns and labels:
Experiment in all cases: NCI tumour cell line growth inhibition, 48 h
[1] = system: UACC-62 melanoma
[2] = system: LOX IMVI melanoma
[3] = system: OVCAR-8 ovarian
[4] = system: COLO 205 colon
[5] = system: MDA-MB-231 breast
[6] = system: NCI-H226 lung
[7] = system: SW-620 colon
[8] = system: UACC-257 melanoma
[9] = system: SNB-19 CNS
[10] = system: SK-MEL-28 melanoma
[11] = system: SK-MEL-2 melanoma
[12] = system: SK-OV-3 ovarian
[13] = system: HCT-15 colon
[14] = system: PC-3 prostate
[15] = system: HOP-92 NSCLC
[16] = system: NCI-H460 lung
[17] = system: RXF 393 renal
[18] = system: UO-31 renal
[19] = system: CAKI-1 renal
[20] = system: K-562 leukemia
[21] = system: SF-268 CNS
[22] = system: SF-295 CNS
[23] = system: NCI/ADR-RES ovarian
[24] = system: OVCAR-4 ovarian
[25] = system: MCF7 breast
[26] = system: MDA-MB-435
[27] = system: M14 melanoma
[28] = system: HCC-2998 colon
[29] = system: SNB-75 CNS
[30] = system: IGROV1 ovarian
[31] = system: NCI-H23 lung
[32] = system: 786-0 renal
[33] = system: ACHN renal
[34] = system: RPMI-8226 leukemia
[35] = system: SF-539 CNS
[36] = system: U251 CNS
[37] = system: HCT-116 colon
[38] = system: A498 renal
[39] = system: T-47D breast
[40] = system: DU-145 prostate
[41] = system: HL-60(TB) leukemia
[42] = system: KM12 colon
[43] = system: HS 578T breast
[44] = system: HOP-62 NSCLC
[45] = system: HT29 colon
[46] = system: EKVX NSCLC
[47] = system: MOLT-4 leukemia
[48] = system: SR leukemia
[49] = system: CCRF-CEM leukemia
[50] = system: BT-549 breast
[51] = system: TK-10 renal
[52] = system: SK-MEL-5 melanoma

Measured: TGI

CC1=NN(c2nc(N)nc(CC#N)n2)C(C)(C)C1
> 100 µM: all assays above
